Reference: patent publication US10144737B2 (ETERNITY BIOSCIENCE INC., priority 2014, dated 2018)

Legend:
TMD-8 cells = assay: Cell proliferation assay (CellTiter-Glo), TMD-8 cells; format: cell-based; settings: Homo sapiens, TMD8, 120 h, 5-day treatment, read-out: TMD8 cell growth (GI50 μM)
Experimental: Cell proliferation assay: TMD-8 and SU-DHL-1 cells were maintained at 37° C. in a humidified atmosphere with 5% CO2 in the recommended medium and serum concentrations. For cell proliferation assay, cells were seeded in 96-well pates at a density of 5,000 to 10,000 cells per well and cultured overnight at 37° C. in recommended medium supplemented with 5-10% FBS. On the next day, the test articles at various concentrations or vehicle control (0.5% DMSO) were added into cell culture. After 5-day treatment, the growth of cells was assayed by the CellTiter-Glo® Luminestceaent Cell Viability Assay (Promega). IC50 values were calculated using GraphPad Prism by plotting the logarithm of the concentration versus percent inhibition of cell growth as compared with the vehicle control.

Btk = molecular target: T1, Btk (Homo sapiens, UniProt Q06187); assay: Btk kinase assay (ADP-Glo); format: biochemical; settings: ADP-Glo Btk kinase assay kit; ATP 1.2 μM; 60 minutes at room temperature
T1 construct: purchased Promega (Madison, Wis.)
T1 sequence (Q06187 whole entry): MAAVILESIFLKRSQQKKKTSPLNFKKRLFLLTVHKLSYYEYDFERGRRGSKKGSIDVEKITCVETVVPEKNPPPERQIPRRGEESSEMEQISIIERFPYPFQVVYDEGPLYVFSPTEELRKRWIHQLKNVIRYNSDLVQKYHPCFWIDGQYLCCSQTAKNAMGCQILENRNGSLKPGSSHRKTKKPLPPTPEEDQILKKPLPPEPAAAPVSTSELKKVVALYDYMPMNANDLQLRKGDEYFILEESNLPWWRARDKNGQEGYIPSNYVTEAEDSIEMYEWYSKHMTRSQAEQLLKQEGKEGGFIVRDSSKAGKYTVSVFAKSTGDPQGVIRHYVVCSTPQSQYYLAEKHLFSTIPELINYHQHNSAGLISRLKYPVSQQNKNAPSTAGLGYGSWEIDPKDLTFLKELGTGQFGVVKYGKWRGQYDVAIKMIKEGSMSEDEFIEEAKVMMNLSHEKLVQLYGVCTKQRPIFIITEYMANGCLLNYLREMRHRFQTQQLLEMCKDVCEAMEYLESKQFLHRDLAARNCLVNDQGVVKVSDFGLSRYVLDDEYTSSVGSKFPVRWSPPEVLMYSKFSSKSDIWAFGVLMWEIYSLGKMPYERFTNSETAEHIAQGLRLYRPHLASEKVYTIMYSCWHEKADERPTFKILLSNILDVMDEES
Experimental: Btk kinase assay—The Btk kinase assay was performed using a ADP-Glo Btk kinase assay kit purchased from Promega (Madison, Wis.). The assay was conducted according to the protocols provided in the assay kit. In brief, the enzyme reaction was carried out in the kinase reaction buffer containing Btk (2 ng/μl), ATP (1.2 μM), poly GT peptide (0.3 μM), DTT (40 nM), MnCl2 (1.4 mM), and 1 xkinase buffer (included in the kit) in the presence or absence of the tested articles at various concentrations in 384-well plate at room temperature (22±1° C.) for 60 minutes. The final reaction volume for each reaction was 10 μl. Then, 4 μl of ADP-Glo reagent (included in the kit) was added into the reaction and the plate was further incubated for another 40 minutes to terminate the reaction and deplete the remaining ATP. Finally, 10 μl of the kinase detection reagent was added into each reaction to simultaneously convert ADP to ATP and allow the newly synthesized ATP to be measured by a plate-reading luminometer (Victor X5 2030 multilabel reader, PerkinElmer). IC50 value was calculated using appropriate programs in GraphPad Prism by plotting the logarithm of the concentration versus percent inhibition as compared with a vehicle (DMSO) control.

| SMILES | GI50 (TMD-8 cells) [µM] | IC50 (Btk) [nM] |
| --- | --- | --- |
| C=CC(=O)N1CCC(Nc2ncnc3[nH]c(C#CCOc4cccc(Cl)c4)nc23)C1 (stereo not drawn) [Example 13, 1-(3-((8-(3-(3-chlorophenoxy)prop-1-yn-1-yl)-9H-purin-6-yl)amino)pyrrolidin-1-yl)prop-2-en-1-one] | 0.019 | 1.9 |
| C=CC(=O)N1CCC(Nc2ncnc3[nH]c(C#CCOc4ccc(F)c(F)c4)nc23)C1 (stereo not drawn) [Example 14, 1-(3-((8-(3-(3,4-difluorophenoxy)prop-1-yn-1-yl)-9H-purin-6-yl)amino)pyrrolidin-1-yl)prop-2-en-1-one] | 0.134 | 15 |
| C=CC(=O)N1CCC(Nc2ncnc3[nH]c(C#CCOc4cccc(F)c4)nc23)C1 (stereo not drawn) [Example 15, 1-(3-((8-(3-(3-fluorophenoxy)prop-1-yn-1-yl)-9H-purin-6-yl)amino)pyrrolidin-1-yl)prop-2-en-1-one] | 0.019 | 14.8 |
| C=CC(=O)N1CCC(Nc2ncnc3[nH]c(C#CCOc4ccccc4F)nc23)C1 (stereo not drawn) [Example 16, 1-(3-((8-(3-(2-fluorophenoxy)prop-1-yn-1-yl)-9H-purin-6-yl)amino)pyrrolidin-1-yl)prop-2-en-1-one] | 0.003 | 0.6 |
| C=CC(=O)N1CCC(Nc2ncnc3[nH]c(C#CCOc4cc(F)cc(F)c4)nc23)C1 (stereo not drawn) [Example 17, 1-(3-((8-(3-(3,5-difluorophenoxy)prop-1-yn-1-yl)-9H-purin-6-yl)amino)pyrrolidin-1-yl)prop-2-en-1-one] | 0.25 | 212 |
| C=CC(=O)N1CCC(Nc2ncnc3[nH]c(C#CCOc4ccccc4Cl)nc23)C1 (stereo not drawn) [Example 18, 1-(3-((8-(3-(2-chlorophenoxy)prop-1-yn-1-yl)-9H-purin-6-yl)amino)pyrrolidin-1-yl)prop-2-en-1-one] | 0.002 | 0.02 |
| C=CC(=O)N1CCC(Nc2ncnc3[nH]c(C#CCOc4ccc(Cl)cc4)nc23)C1 (stereo not drawn) [Example 19, 1-(3-((8-(3-(4-chlorophenoxy)prop-1-yn-1-yl)-9H-purin-6-yl)amino)pyrrolidin-1-yl)prop-2-en-1-one] | 0.148 | 22 |
| C=CC(=O)N1CCC(Nc2ncnc3[nH]c(C#CCOc4ccc(F)cc4)nc23)C1 (stereo not drawn) [Example 20, 1-(3-((8-(3-(4-fluorophenoxy)prop-1-yn-1-yl)-9H-purin-6-yl)amino)pyrrolidin-1-yl)prop-2-en-1-one] | 0.051 | 0.5 |
| CN(C)C/C=C/C(=O)N1CCC(Nc2ncnc3[nH]c(C#CCOc4ccc(Cl)cc4)nc23)C1 (stereo not drawn) [Example 21, (E)-1-(3-((8-(3-(4-chlorophenoxy)prop-1-yn-1-yl)-9H-purin-6-yl)amino)pyrrolidin-1-yl)-4-(dimethylamino)but-2-en-1-one] | 1.8 | 4 |
| CN(C)C/C=C/C(=O)N1CCC(Nc2ncnc3[nH]c(C#CCOc4ccc(F)cc4)nc23)C1 (stereo not drawn) [Example 22, (E)-1-(3-((8-(3-(4-fluorophenoxy)prop-1-yn-1-yl)-9H-purin-6-yl)amino)pyrrolidin-1-yl)-4-(dimethylamino)but-2-en-1-one] | 1 | 0.02 |
| CN(C)C/C=C/C(=O)N1CCC(Nc2ncnc3[nH]c(C#CCOc4ccccc4F)nc23)C1 (stereo not drawn) [Example 23, (E)-1-(3-((8-(3-(2-fluorophenoxy)prop-1-yn-1-yl)-9H-purin-6-yl)amino)pyrrolidin-1-yl)-4-(dimethylamino)but-2-en-1-one] | 0.107 | 1.5 |
| C=CC(=O)N1CCC(Nc2ncnc3[nH]c(C#CCOc4ccc(F)cc4F)nc23)C1 (stereo not drawn) [Example 24, 1-(3-((8-(3-(2,4-difluorophenoxy)prop-1-yn-1-yl)-9H-purin-6-yl)amino)pyrrolidin-1-yl)prop-2-en-1-one] | 0.01 | 1 |
| C=CC(=O)N1CCC(Nc2ncnc3[nH]c(C#CCOc4ccccc4OC)nc23)C1 (stereo not drawn) [Example 25, 1-(3-((8-(3-(2-methoxyphenoxy)prop-1-yn-1-yl)-9H-purin-6-yl)amino)pyrrolidin-1-yl)prop-2-en-1-one] | 0.006 | 1 |
| C=CC(=O)N1CCC(Nc2ncnc3[nH]c(C#CCOc4cccc(OC)c4)nc23)C1 (stereo not drawn) [Example 26, 1-(3-((8-(3-(3-methoxyphenoxy)prop-1-yn-1-yl)-9H-purin-6-yl)amino)pyrrolidin-1-yl)prop-2-en-1-one] | 0.247 | 6.5 |
| C=CC(=O)N1CCC(Nc2ncnc3[nH]c(C#CCOc4ccc(OC)cc4)nc23)C1 (stereo not drawn) [Example 27, 1-(3-((8-(3-(4-methoxyphenoxy)prop-1-yn-1-yl)-9H-purin-6-yl)amino)pyrrolidin-1-yl)prop-2-en-1-one] | 0.094 | 16 |
| COc1ccccc1OCC#Cc1nc2c(NC3CCN(C(=O)/C=C/CN(C)C)C3)ncnc2[nH]1 (stereo not drawn) [Example 28, (E)-1-(3-((8-(3-(2-methoxyphenoxy)prop-1-yn-1-yl)-9H-purin-6-yl)amino)pyrrolidin-1-yl)-4-(dimethylamino)but-2-en-1-one] | 0.082 | 0.4 |
| COc1cccc(OCC#Cc2nc3c(NC4CCN(C(=O)/C=C/CN(C)C)C4)ncnc3[nH]2)c1 (stereo not drawn) [Example 29, (E)-1-(3-((8-(3-(3-methoxyphenoxy)prop-1-yn-1-yl)-9H-purin-6-yl)amino)pyrrolidin-1-yl)-4-(dimethylamino)but-2-en-1-one] | 1.21 | 0.7 |
| COc1ccc(OCC#Cc2nc3c(NC4CCN(C(=O)/C=C/CN(C)C)C4)ncnc3[nH]2)cc1 (stereo not drawn) [Example 30, (E)-1-(3-((8-(3-(4-methoxyphenoxy)prop-1-yn-1-yl)-9H-purin-6-yl)amino)pyrrolidin-1-yl)-4-(dimethylamino)but-2-en-1-one] | 1.2 | 19 |
| C=CC(=O)N1CC[C@@H](Nc2ncnc3[nH]c(C#CCOc4ccccc4)nc23)C1 [Example 31, (R)-1-(3-((8-(3-phenoxyprop-1-yn-1-yl)-9H-purin-6-yl)amino)pyrrolidin-1-yl)prop-2-en-1-one] | 0.02 | 1.6 |
| CN(C)C/C=C/C(=O)N1CC[C@@H](Nc2ncnc3[nH]c(C#CCOc4ccccc4)nc23)C1 [Example 32, (R,E)-4-(dimethylamino)-1-(3-((8-(3-phenoxyprop-1-yn-1-yl)-9H-purin-6-yl)amino)pyrrolidin-1-yl)but-2-en-1-one] | 0.004 | 7.5 |
| CN(C)C/C=C/C(=O)N1CCC(Nc2ncnc3[nH]c(C#CCOc4ccccc4)cc23)C1 (stereo not drawn) [Example 34, (E)-4-(dimethylamino)-1-(3-((6-(3-phenoxyprop-1-yn-1-yl)-7H-pyrrolo[2,3-d]pyrimidin-4-yl)amino)pyrrolidin-1-yl)but-2-en-1-one] | 0.107 | 0.3 |
| CNC/C=C/C(=O)N1CCC(Nc2ncnc3[nH]c(C#CCOc4ccccc4)cc23)C1 (stereo not drawn) [Example 35] | 0.95 | 0.4 |
| O=C(/C=C/CN1CCOCC1)N1CCC(Nc2ncnc3[nH]c(C#CCOc4ccccc4)cc23)C1 (stereo not drawn) [Example 36, (E)-4-morpholino-1-(3-((6-(3-phenoxyprop-1-yn-1-yl)-7H-pyrrolo[2,3-d]pyrimidin-4-yl)amino)pyrrolidin-1-yl)but-2-en-1-one] | 0.552 | 127 |
| C=CC(=O)N1CCC(N(C)c2ncnc3[nH]c(C#CCOc4ccccc4)cc23)C1 (stereo not drawn) [Example 38, 1-(3-(methyl(6-(3-phenoxyprop-1-yn-1-yl)-7H-pyrrolo[2,3-d]pyrimidin-4-yl)amino)pyrrolidin-1-yl)prop-2-en-1-one] | 0.209 | 384 |
